Experimental data as given in US20250360160A1, “NEW MEDICAL USE OF TAFOXIPARIN” (DILAFOR AB, priority 2022, published 2025).

Test system: factor IIa
Assay: antifactor IIa activity
Format: biochemical
Settings: definition of tafoxiparin

Sequence of factor IIa (P01008 33-464): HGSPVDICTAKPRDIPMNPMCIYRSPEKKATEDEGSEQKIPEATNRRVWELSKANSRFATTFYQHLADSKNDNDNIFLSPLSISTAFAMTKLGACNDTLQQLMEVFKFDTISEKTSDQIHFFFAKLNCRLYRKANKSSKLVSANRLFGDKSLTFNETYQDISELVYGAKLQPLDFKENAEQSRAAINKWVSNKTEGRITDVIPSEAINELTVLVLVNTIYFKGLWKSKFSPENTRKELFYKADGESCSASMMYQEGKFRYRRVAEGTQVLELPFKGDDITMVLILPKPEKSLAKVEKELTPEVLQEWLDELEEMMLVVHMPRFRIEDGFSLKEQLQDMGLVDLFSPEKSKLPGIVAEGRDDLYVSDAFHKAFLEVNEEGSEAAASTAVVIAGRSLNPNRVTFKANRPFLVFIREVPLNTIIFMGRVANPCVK

tafoxiparin
antifactor IIa activity: less than 10 IU/mg
